These are literature values, as cited in patent publication US20060147526A1, “Pharmaceutical formulations comprising ß-2 adrenoreceptor agonists and xanthines” (CIPLA LIMTED, priority 2002, published 2006).

The conditions of data set [1]: in vivo.
For data set [2] the following is noted: inhalation.

Consider `CN(C)C(=O)Oc1cc(OC(=O)N(C)C)cc(C(O)CNC(C)(C)C)c1` (centres unmarked) [bambuterol, 5-[2-(tert-butylamino)-1-hydroxyethyl]-m-phenylene-bis(dimethylcarbamate)], for which, in data set [1], the duration of action was 24 h.
With `OCc1cc(C(O)CNCCCCCCOCCCCc2ccccc2)ccc1O` (centres unmarked) [salmeterol], in data set [2], the persistent bronchodilation lasting entry was “over 12 hours”.
